Entries after “also recorded” stand apart in the source; their conditions may differ. Structures can show the parent of a compound that is named as a salt. Where two headings read alike, the source gives them in different places.
Tests used:
L1210 cells [1] = experiment: Metabolic transformation of polyamine analogues by L1210 cells; assay type: in vitro ADME, murine; conditions: 48 hours, 100 μM analogue
Experimental: (§1) The cells were washed twice with cold RPMI-1640, and the pellet was treated with 0.6 N HClO4 (1 ml/10^7 cells). Polyamine contents of the perchloric acid extracts were quantitated by HPLC of the DANSYL derivatives [Bergeron et al, J. Med. Chem., Vol. 37, supra].

L1210 cells [2] = experiment: Polyamine pool analysis in L1210 cells; assay type: cell-based, murine; conditions: for activity at 100 µM / activity at 500 µM / activity at 0.9 µM / activity at 4.5 µM: Mus musculus; for activity at 100 µM / activity at 500 µM / activity at 0.9 µM / activity at 4.5 µM / Put / Spd: % of untreated control; for Analogue: intracellular amount; for Put / Spd: Trihydrochloride
Experimental: The following guidelines were adopted for studying the impact of the analogues on polyamine pools (Table 2). The measurements were made after a 48-hour exposure to the analogue, and two different concentrations of analogue were evaluated in each case.
as §1

L1210 cells [3] = experiment: L1210 growth inhibition, IC50 determination; assay type: cell-based, murine; conditions: Mus musculus
Experimental: Murine L1210 leukemia cells (ATCC CCL 219) were maintained in logarithmic growth in RPMI-1640 medium containing 10% fetal calf serum or a semi-synthetic equivalent, NuSerum, 2% HEPES-MOPS buffer and 1 mM aminoguanidine.

[4] = tested on: polyamine transport apparatus; experiment: Competitive uptake determination: inhibition of [3H]spermidine transport into L1210 cells; assay type: cell-based, murine; conditions: analogue inhibition of spermidine transport
Experimental: The ability of the norspermidines, spermidines, homospermidines, 4,5- and 5,5-triamines to compete with radiolabeled SPD for uptake was evaluated (Table 1). The general trend is that the terminally alkylated triamines have higher Ki values than the unalkylated triamines and are thus less easily taken up by the cell. […] This is not completely true with the norspermidines and the 5,5 triamines. The relationship holds with methyl and ethyl but not for the propyl of the latter two systems. Finally, the number of methylenes separating the amines plays a role in determining polyamine uptake properties. In general the effectiveness with which the analogues compete for uptake is spermidines≈homospermidines>4,5 triamines>5,5 triamines>norspermidine.
The polyamine derivatives were studied for their ability to compete with [^3H]-SPD for uptake into L1210 cells [Bergeron et al, J. Med. Chem., Vol. 37, supra]. Lineweaver-Burk plots indicated a simple competitive inhibition with respect to SPD.

[5] = tested on: spermidine/spermine acetyltransferase (SSAT); experiment: SSAT activity in treated L1210 cells; assay type: cell-based, murine; conditions: L1210, 10 μM at 48 hours (triamine analogues)
Description: Spermidine/spermine N^1-acetyltransferase activity was based on quantitation of [^14C]-N^1-acetylspermidine formed by acetylation of SPD with [^14C] acetyl coenzyme A according to the method of Libby et al [Biochem. Pharmacol., Vol. 38, supra]. Cells treated with DENSPM were positive controls.

[6] = tested on: ornithine decarboxylase (ODC); experiment: ODC activity in treated L1210 cells; assay type: cell-based, murine; conditions: L1210, 1 μM at 4 hours
Experimental: (§2) On the basis of these studies, it was elected to evaluate the impact of the triamines on ODC and AdoMetDC at 4 and 6 hours, respectively.
(§3) ODC and AdoMetDC activities were determined as ^14CO2 released from [^14C]-carboxyl-labeled L-ornithine [Seely et al, “Ornithine Decarboxylase (Mouse Kidney),” Methods Enzymol., Vol. 94, pages 158-161 (1983)] or S-adenosyl-L-methionine [Pegg et al, “S-Adenosylmethionine Decarboxylase (Rat Liver),” Methods Enzymol., Vol. 94, pages 234-239 (1983)], respectively. Included in each assay were untreated L1210 cells as controls, as well as cells treated with DEHSPM, a drug having a known reproducible effect on each enzyme, as positive controls.

L1210 cells [7] = conditions: intracellular amount, 48 hours, cited from earlier work
[8] = tested on: S-adenosylmethionine decarboxylase (AdoMetDC); experiment: AdoMetDC activity in treated L1210 cells; assay type: cell-based, murine; conditions: L1210, 1 μM at 6 hours
Experimental: as §2, §3

[9] = L1210, 48 h, 100 μM, read-out: Put
[10] = L1210, 48 h, 100 μM, read-out: Spd
[11] = L1210, 48 h, 100 μM, read-out: Spm
[12] = L1210, 48 h, 500 μM, read-out: Put
[13] = L1210, 48 h, 500 μM, read-out: Spd
[14] = L1210, 48 h, 500 μM, read-out: Spm
[15] = L1210, 48 h, L1210, 48 hour exposure, read-out: IC50 48 hour
[16] = L1210, 96 h, L1210, 96 hour exposure, read-out: IC50 96 hour
[17] = 500 μM, 48 hours, listed as (5,5)
[18] = 500 μM, 48 hours, listed as (4,5)

Row | Structure (SMILES) | activity at 100 µM (L1210 cells [2]; [9]) [%] | activity at 100 µM (L1210 cells [2]; [10]) [%] | activity at 100 µM (L1210 cells [2]; [11]) [%] | activity at 500 µM (L1210 cells [2]; [12]) [%] | activity at 500 µM (L1210 cells [2]; [13]) [%] | activity at 500 µM (L1210 cells [2]; [14]) [%] | Analogue (L1210 cells [2]; 100 μM, 48 hours) [nmol/10^6 cells] | Analogue (L1210 cells [2]; 500 μM, 48 hours) [nmol/10^6 cells] | IC50 (L1210 cells [3]; [15]) [µM] | IC50 (L1210 cells [3]; [16]) [µM] | Ki [4] [µM] | SSAT activity, percent of untreated control [5] | ODC activity, percent of untreated control [6] | AdoMetDC activity, percent of untreated control [8] | other results
1 | CCCNCCCCNCCCNCCC [DPSPD, N^1,N^8-Dipropylspermidine Trihydrochloride] | 6 | 35 | 135 | 0 | ~10 | 99 | 3.26 | 3.69 | > 100 | 30 to 35 | 25.6 | 1030% of untreated control | 75% of untreated control |  | Parent drug as % of total drug in the cell (L1210 cells [1]): 90.1%; Parent drug in L1210 cells (L1210 cells [1]): 3260 pmols/10^6
2 | CCNCCCNCCCCNCCCN [MESPM] |  |  |  |  |  |  |  |  |  |  |  |  |  |  | Analogue, corresponding tetraamine (in parentheses) (L1210 cells [7]; 100 μM): (1.24) nmol/10^6 cells; Analogue, corresponding tetraamine (in parentheses) (L1210 cells [7]; 500 μM): (1.23) nmol/10^6 cells
3 | NCCCNCCCN [NSPD, N—(3-aminopropyl)-1,3-propanediamine, reference compound] |  |  |  |  |  |  |  |  | 0.9 | 0.5 | 7.2 | 150% of untreated control | 11% of untreated control | 62% of untreated control | activity at 0.9 µM (L1210 cells [2]; L1210, 0.9 μM, 48 hours, read-out: Put): 38%; activity at 0.9 µM (L1210 cells [2]; L1210, 0.9 μM, 48 hours, read-out: Spd): 44%; activity at 0.9 µM (L1210 cells [2]; L1210, 0.9 μM, 48 hours, read-out: Spm): 113%; activity at 4.5 µM (L1210 cells [2]; L1210, 4.5 μM, 48 hours, read-out: Put): 0%; activity at 4.5 µM (L1210 cells [2]; L1210, 4.5 μM, 48 hours, read-out: Spd): 12%; activity at 4.5 µM (L1210 cells [2]; L1210, 4.5 μM, 48 hours, read-out: Spm): 83%; Analogue (L1210 cells [2]; 0.9 μM, 48 hours): 1.09 nmol/10^6 cells; Analogue (L1210 cells [2]; 4.5 μM, 48 hours): 2.14 nmol/10^6 cells
4 | NCCCCCNCCCCCN [5,5-Triamine, 1,7,13-Triazatridecane Trihydrochloride] | 0 | 0 | 33 | 0 | 0 | 20 | 2.58 | 2.50 | ~100 | 0.3 to 0.5 | 13.8 | 90% of untreated control | 16% of untreated control | 88% of untreated control | Put (L1210 cells [2]; [17]): below detectable level; Spd (L1210 cells [2]; [17]): below detectable level
5 | CCNCCCNCCCN [MENSPD, monoethylnorspermidine] |  |  |  |  |  |  |  |  | > 100 | > 100 | 34 | 390% of untreated control | 42% of untreated control | 58% of untreated control | Parent drug as % of total drug in the cell (L1210 cells [1]): 78.2%; Parent drug in L1210 cells (L1210 cells [1]): 3051 pmols/10^6; Elaboration to tetraamine (result in words) (L1210 cells [1]; listed as ME-[3,3]): no evidence of a tetraamine elaboration metabolite; also recorded: no elaboration of N-Monoalkyl [3,3]
6 | CCCNCCCCNCCCCN [MPHSPD, N^1-Propylhomospermidine Trihydrochloride] | 0 | 2 | 82 | 0 | 0 | 66 | 5.16 | 5.86 | 100 | 0.5 to 0.7 | 5 | 570% of untreated control | 20% of untreated control | 59% of untreated control | 
7 | NCCCCNCCCCN [HSPD, Homospermidine Trihydrochloride] |  |  |  |  |  |  | 3.58 | 4.44 | > 100 | 1.7 to 4 | 3.4 | 430% of untreated control | 11% of untreated control | 54% of untreated control | activity at 100 µM (L1210 cells [2]; L1210, 100 μM, 48 hours, read-out: Put): 0%; activity at 100 µM (L1210 cells [2]; L1210, 100 μM, 48 hours, read-out: Spd): 4%; activity at 100 µM (L1210 cells [2]; L1210, 100 μM, 48 hours, read-out: Spm): 32%; activity at 500 µM (L1210 cells [2]; L1210, 500 μM, 48 hours, read-out: Put): 0%; activity at 500 µM (L1210 cells [2]; L1210, 500 μM, 48 hours, read-out: Spd): 2%; activity at 500 µM (L1210 cells [2]; L1210, 500 μM, 48 hours, read-out: Spm): 21%
8 | NCCCCCNCCCCN [4,5-Triamine, 1,6,12-Triazadodecane Trihydrochloride] | 0 | 1 | 53 | 0 | 0 | 35 | 3.02 | 3.20 | > 100 | 0.15 to 0.2 | 1.4 | 410% of untreated control | 19% of untreated control | 57% of untreated control | Put (L1210 cells [2]; [18]): below detectable level; Spd (L1210 cells [2]; [18]): below detectable level
